Like-named read-outs stand apart in the source and are kept apart here.
Tests used:
[1] = system: MCF7-R (mammary carcinoma cells 180-fold resistant to adriamycin); assay: Tumor cell growth inhibition (SRB), 72 h; assay type: cell-based, human; conditions: for IC50: Homo sapiens, MCF7R, read-out: concentration of compound which inhibit 50% (IC50) of the growth of human tumor cell line
[2] = system: HT-29 (colon carcinoma); assay: Tumor cell growth inhibition (SRB), 72 h; assay type: cell-based; conditions: Homo sapiens, read-out: concentration of compound which inhibit 50% (IC50) of the growth of human tumor cell line
[3] = system: A121 (ovarian carcinoma); assay: Tumor cell growth inhibition (SRB), 72 h; assay type: cell-based; conditions: Homo sapiens, read-out: concentration of compound which inhibit 50% (IC50) of the growth of human tumor cell line
[4] = system: MCF7 (mammary carcinoma); assay: Tumor cell growth inhibition (SRB), 72 h; assay type: cell-based; conditions: Homo sapiens, read-out: concentration of compound which inhibit 50% (IC50) of the growth of human tumor cell line
[5] = recent report on clinical trials; cited from earlier work
[6] = system: drug-resistant tumors, e.g., adriamycin-resistant breast cancer; conditions: cited from earlier work
[7] = system: A121 human ovarian, A549 human non-small cell lung, HT-29 human colon and MCF7 human breast cancer cells; assay: Cytotoxicity against human cancer cell panel, stated jointly for the four lines
[8] = system: A549 (non-small cell lung carcinoma); assay: Tumor cell growth inhibition (SRB), 72 h; assay type: cell-based; conditions: Homo sapiens, read-out: concentration of compound which inhibit 50% (IC50) of the growth of human tumor cell line
[9] = relative to paclitaxel; cited from earlier work
[10] = system: breast and lung cancers; conditions: United States, Europe, and Japan; cited from earlier work
[11] = relative to paclitaxel; cited from earlier work; remark: listed apart in the source
[12] = system: human colon carcinoma cells HCT-116; conditions: cited from earlier work
[13] = A549 (NSCLC), 72 h drug exposure, mean of at least three experiments
[14] = HT-29 (colon), 72 h drug exposure, mean of at least three experiments
[15] = A121 (ovarian), 72 h drug exposure, mean of at least three experiments
[16] = MCF7 (breast), 72 h drug exposure, mean of at least three experiments

| IC50 [8, 13] [nM] | IC50 [2, 14] [nM] | IC50 [3, 15] [nM] | IC50 [4, 16] [nM] | SMILES | IC50 ([2]; HT-29, 72 h) [nM] | IC50 ([3]; A121, 72 h) [nM] | IC50 ([4]; MCF7, 72 h) [nM] | side effects in clinical trials [5] | activity against drug-resistant tumors [6] | other results |
| --- | --- | --- | --- | --- | --- | --- | --- | --- | --- | --- |
|  |  |  |  | CC(=O)O[C@H]1C(=O)[C@@]2(C)[C@H]([C@H](OC(=O)c3ccccc3)[C@]3(O)C[C@H](OC(=O)[C@H](O)[C@@H](NC(=O)c4ccccc4)c4ccccc4)C(C)=C1C3(C)C)[C@]1(OC(C)=O)CO[C@@H]1C[C@@H]2O [Paclitaxel] | 3.2 | 6.1 | 1.7 | nerve damage, muscle pain or disturbances in heart rhythm | only a weak activity | IC50 ([1]; 72 h): 300 nM |
|  |  |  |  | CC(=O)O[C@@]12CO[C@@H]1C[C@H](O)[C@@]1(C)C(=O)[C@H](O)C3=C(C)[C@@H](OC(=O)[C@H](O)[C@H](C=Cc4ccccc4)NC(=O)OC(C)(C)C)C[C@@](O)([C@@H](OC(=O)c4ccccc4)[C@H]21)C3(C)C [3'-dephenyl-3'-(2-phenylethenyl)docetaxel] |  |  |  |  |  | decreased cytotoxicity ([7]; fold decrease): > 20 times |
| 1 | 1.2 | 1.2 | 1 | CC(=O)O[C@@]12CO[C@@H]1C[C@H](O)[C@@]1(C)C(=O)[C@H](O)C3=C(C)[C@@H](OC(=O)[C@H](O)[C@@H](NC(=O)OC(C)(C)C)c4ccccc4)C[C@@](O)([C@@H](OC(=O)c4ccccc4)[C@H]21)C3(C)C [Docetaxel] |  |  |  | mouth sores and plunge in white blood cells | only a weak activity | antitumor activity compared with paclitaxel [9]: superior to paclitaxel; activity in phase II and III clinical trials [10]: excellent activities, especially against breast and lung cancers; bioavailability compared with paclitaxel [11]: better bioavailability |
|  |  |  |  | CC(=O)O[C@@]12CO[C@@H]1C[C@H](O)[C@@]1(C)C(=O)[C@H](O)C3=C(C)[C@@H](OC(=O)[C@H](O)[C@H](CC(C)(C)C)NC(=O)OC(C)(C)C)C[C@@](O)([C@@H](OC(=O)c4ccccc4)[C@H]21)C3(C)C [3'-dephenyl-3'-neopentyldocetaxel] |  |  |  |  |  | cytotoxicity ([7]; in words): virtually not cytotoxic |
|  |  |  |  | CC(=O)O[C@H]1C(=O)[C@@]2(C)[C@H]([C@H](OC(=O)c3ccccc3)[C@]3(O)C[C@H](OC(=O)[C@H](O)[C@H](C=C(C)C)NC(=O)c4ccccc4)C(C)=C1C3(C)C)[C@]1(OC(C)=O)CO[C@@H]1C[C@@H]2O [RAH-1, 3'-dephenyl-3'-isobutenylpaclitaxel] | 0.96 | 1.4 | 0.54 |  |  | IC50 ([8]; A549, 72 h): 0.45 nM; times better activity than docetaxel ([12]; relative to docetaxel): 7 times; times better activity than paclitaxel ([12]; relative to paclitaxel): 4 times |
| 0.54 | 0.76 | 0.9 | 0.51 | CC=C[C@H](NC(=O)OC(C)(C)C)[C@@H](O)C(=O)O[C@H]1C[C@@]2(O)[C@@H](OC(=O)c3ccccc3)[C@@H]3[C@]4(OC(C)=O)CO[C@@H]4C[C@H](O)[C@@]3(C)C(=O)[C@H](OC(C)=O)C(=C1C)C2(C)C [Taxoid Ia] |  |  |  |  |  | IC50 ([1]; MCF7-R, 72 h drug exposure, mean of at least three experiments): 14 nM; times better activity than docetaxel ([1]; MCF7-R, relative to docetaxel): 17 times; times better activity than paclitaxel ([1]; MCF7-R, relative to paclitaxel): 21 times; activity spectrum compared with paclitaxel and docetaxel ([7]; relative to paclitaxel and docetaxel): considerably better activity spectrum |

Source: US6096909A, “Taxoid anti-tumor agents and pharmaceutical compositions thereof” (The Research Foundation of State University of New York, priority 1997, dated 2000)
